Experimental findings from PubChem BioAssay (NCI) are described below.

Among the test systems are HOP-62 NSCLC; HS 578T breast; KM12 colon; LOX IMVI melanoma; SNB-19 CNS; SNB-75 CNS; SR leukemia; SW-620 colon; T-47D breast; RXF 393 renal.
Holding throughout (test): growth of human tumour cells (NCI), 48 h

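Exposure lasted 48 hours, with cells grown in 96-well plates and compounds tested at five concentrations. Here, GI50 denotes the concentration required for 50% inhibition of growth. TGI: total growth inhibition.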

On to `S=C(NCc1ccccc1)N/N=C/c1ccccn1`, for which the TGI with HOP-62 NSCLC was 71.5 µM; with HS 578T breast it was above 100 µM; in the test with KM12 colon, above 100 µM; in the test with LOX IMVI melanoma, 21.5 µM; with SNB-19 CNS, above 100 µM; with SNB-75 CNS it was 47.8 µM. Further, the TGI with SR leukemia is above 21 µM; with SW-620 colon it was above 61.4 µM; in the test with T-47D breast it was above 100 µM.

Consider `C=C1C(=O)O[C@H]2[C@H]3O[C@@H](C[C@@H]12)[C@](C)(O)CC[C@@H]1O[C@@]1(C)CCC[C@H]3C`, for which the TGI in the test on HOP-62 NSCLC was above 100 µM; with HS 578T breast it was above 100 µM; with KM12 colon, 57.3 µM; in the test on LOX IMVI melanoma it was 35.7 µM; with RXF 393 renal, 26.9 µM; with SNB-19 CNS it was above 100 µM. Besides, the TGI is 96.1 µM in the test on SNB-75 CNS, above 100 µM with SR leukemia, 42.1 µM in the test with SW-620 colon and 82.4 µM in the test with T-47D breast.

With `Cc1[nH]c(=O)[nH]c(=S)c1C(=O)Nc1cccc2cc3ccccc3cc12`, the TGI with HOP-62 NSCLC, with HS 578T breast, in the test on KM12 colon, in the test with LOX IMVI melanoma, with RXF 393 renal and in the test with SNB-19 CNS was above 100 µM throughout. Besides, the TGI in the test with SNB-75 CNS, in the test with SR leukemia, in the test on SW-620 colon and in the test with T-47D breast was above 100 µM throughout.

Turning to `C/C(Nc1ccc(Cl)cc1Cl)=C1/CCOC1=O`, the TGI is 70.8 µM in the test with HOP-62 NSCLC; 73.8 µM in the test with HS 578T breast; above 100 µM in the test on KM12 colon; above 100 µM in the test with LOX IMVI melanoma; 39.8 µM in the test with RXF 393 renal; 67.1 µM in the test on SNB-19 CNS. For the same compound, the TGI is 66.1 µM with SNB-75 CNS, above 100 µM in the test with SR leukemia, above 100 µM in the test on SW-620 colon and above 100 µM in the test with T-47D breast.

Consider `CCOC(=O)c1cnccc1CC1(C#N)c2ccccc2C=CN1C(=O)c1ccccc1` (stereo not given), for which the TGI in the test on HOP-62 NSCLC was above 100 µM; in the test with HS 578T breast, 46.4 µM; with KM12 colon, 31.3 µM; in the test on LOX IMVI melanoma, 72.9 µM; in the test with RXF 393 renal, above 100 µM; in the test with SNB-19 CNS it was above 100 µM. For the same compound, the TGI is 52.9 µM in the test with SNB-75 CNS, 92.7 µM with SR leukemia, above 100 µM in the test on SW-620 colon and above 100 µM with T-47D breast.

For the compound `CCC(CC(C)C)Nc1ccc(NC(CC)CC(C)C)cc1` (stereo not given), the GI50 with HOP-62 NSCLC is 18.6 µM; in the test on HS 578T breast, 25 µM; with KM12 colon, 15.6 µM; with LOX IMVI melanoma, 14.9 µM; with RXF 393 renal it was 14.9 µM; with SNB-19 CNS, 15.9 µM. Also, the GI50 is 15.4 µM in the test on SNB-75 CNS, 15.1 µM in the test on SR leukemia, 15.6 µM in the test on SW-620 colon and 12.7 µM with T-47D breast. The TGI is 33.3 µM with HOP-62 NSCLC; above 100 µM with HS 578T breast; 30.2 µM in the test on KM12 colon; 35.1 µM in the test with LOX IMVI melanoma; 28.1 µM with RXF 393 renal; 29.4 µM with SNB-19 CNS. Also, the TGI was determined as 38.2 µM in the test on SNB-75 CNS, 39.7 µM in the test with SR leukemia, 30.1 µM with SW-620 colon and 26.7 µM in the test with T-47D breast.

Consider `N/C(=N\Nc1ccc(S(N)(=O)=O)cc1)c1cnccn1`, for which the TGI with HOP-62 NSCLC, in the test with HS 578T breast, in the test on KM12 colon, with LOX IMVI melanoma, in the test with RXF 393 renal and in the test on SNB-19 CNS was above 100 µM in each case. Besides, the TGI in the test with SNB-75 CNS, with SR leukemia, in the test on SW-620 colon and in the test with T-47D breast was above 100 µM in each case.

On to `O=C(/C=C/c1cccs1)c1ccccc1Cl`, for which the TGI with HOP-62 NSCLC is 32.1 µM; in the test on HS 578T breast, 35.5 µM; with KM12 colon, 20.4 µM; in the test with LOX IMVI melanoma, 32.9 µM; in the test on RXF 393 renal, 23.7 µM; in the test with SNB-19 CNS, 28.9 µM. In addition, the TGI in the test on SNB-75 CNS is 28.9 µM; in the test on SR leukemia, above 47.6 µM; in the test with SW-620 colon, 40.9 µM; in the test with T-47D breast it was 22.8 µM.

With `CC(C)C1(O)C(=O)N(c2c(F)c(F)c(F)c(F)c2F)C(=S)N1CCSc1ccccc1` (stereo not given), the TGI with HOP-62 NSCLC was found to be 34.6 µM; in the test with HS 578T breast, 39.7 µM; in the test on KM12 colon, 31.5 µM; with LOX IMVI melanoma, 30.1 µM; in the test with RXF 393 renal, 33.1 µM; in the test on SNB-19 CNS, 31.9 µM. Further, the TGI in the test with SNB-75 CNS was found to be 31.1 µM; in the test with SR leukemia, 43 µM; with SW-620 colon, 30.3 µM; with T-47D breast it was 33.6 µM.

In the case of `CS(=O)(=O)NC12CCC(c3ccccc31)c1ccccc12`, the TGI in the test with HOP-62 NSCLC, in the test with HS 578T breast, in the test with KM12 colon, with LOX IMVI melanoma, in the test on SNB-19 CNS and in the test with SNB-75 CNS was above 100 µM each time. For the same compound, the TGI in the test on SR leukemia, in the test with SW-620 colon and in the test on T-47D breast was above 100 µM in each case.

`COC(=O)c1c(C)nc(C)c(NO)c1-c1ccccc1C(F)(F)F`: the TGI in the test with HOP-62 NSCLC was above 100 µM; in the test with HS 578T breast, above 100 µM; in the test on KM12 colon, above 100 µM; with LOX IMVI melanoma it was above 100 µM; with RXF 393 renal, 32 µM; in the test on SNB-19 CNS, above 100 µM. In addition, the TGI with SR leukemia is above 100 µM; with SW-620 colon, 30.2 µM; in the test with T-47D breast, 66.1 µM.

As to `Cc1ccc(S(=O)(=O)n2cc(C#N)c(C#N)c2)cc1`, the TGI in the test on HOP-62 NSCLC was 68.8 µM; with HS 578T breast, 61.4 µM; with KM12 colon, above 100 µM; in the test with LOX IMVI melanoma, 52.1 µM; in the test on RXF 393 renal, 94.3 µM; with SNB-75 CNS, above 100 µM. Besides, the TGI came out at 71 µM with SR leukemia, 80 µM with SW-620 colon and 72.4 µM with T-47D breast.

Turning to `C=C(C)[C@@H]1CC[C@]2(C(=O)O)CC[C@]3(C)[C@H](CCC4[C@@]5(C)CC[C@H](C(=O)/C=C/c6ccc(O)c(O)c6)C(C)(C)[C@@H]5CC[C@]43C)[C@@H]12` (stereo not given in full), the TGI is 17 µM in the test on HOP-62 NSCLC; 46.2 µM in the test on HS 578T breast; 28.2 µM in the test with KM12 colon; above 100 µM with LOX IMVI melanoma; above 100 µM in the test with RXF 393 renal; above 100 µM in the test on SNB-19 CNS. Moreover, the TGI is above 100 µM in the test on SNB-75 CNS, above 100 µM in the test on SR leukemia and 95.7 µM in the test on T-47D breast.
